Patent US20140205537A1, “LRRK2 INHIBITORS” (ZENOBIA THERAPEUTICS, INC., priority 2011, published 2014)

Assays:
CHEK1 = biological target: T1, CHEK1 (Homo sapiens, UniProt O14757); assay: Kinase selectivity panel: CHEK1; format: biochemical
T1 sequence (O14757 1-476): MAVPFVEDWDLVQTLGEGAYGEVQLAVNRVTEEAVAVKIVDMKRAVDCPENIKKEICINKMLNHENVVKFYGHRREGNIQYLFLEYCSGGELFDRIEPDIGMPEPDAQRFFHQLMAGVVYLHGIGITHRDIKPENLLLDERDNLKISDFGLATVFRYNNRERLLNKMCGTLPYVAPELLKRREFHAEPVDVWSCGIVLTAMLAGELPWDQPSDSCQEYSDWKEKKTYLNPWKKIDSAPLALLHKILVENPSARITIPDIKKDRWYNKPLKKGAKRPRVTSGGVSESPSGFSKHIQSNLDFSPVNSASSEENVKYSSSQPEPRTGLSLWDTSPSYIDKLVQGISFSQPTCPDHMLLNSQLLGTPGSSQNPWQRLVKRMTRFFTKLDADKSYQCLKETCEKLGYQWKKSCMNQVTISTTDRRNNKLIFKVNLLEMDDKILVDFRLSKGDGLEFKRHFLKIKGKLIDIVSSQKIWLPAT

AURKA = biological target: T2, AURKA (Homo sapiens, UniProt O14965); assay: Kinase selectivity panel: AURKA; format: biochemical
T2 sequence (O14965 1-403): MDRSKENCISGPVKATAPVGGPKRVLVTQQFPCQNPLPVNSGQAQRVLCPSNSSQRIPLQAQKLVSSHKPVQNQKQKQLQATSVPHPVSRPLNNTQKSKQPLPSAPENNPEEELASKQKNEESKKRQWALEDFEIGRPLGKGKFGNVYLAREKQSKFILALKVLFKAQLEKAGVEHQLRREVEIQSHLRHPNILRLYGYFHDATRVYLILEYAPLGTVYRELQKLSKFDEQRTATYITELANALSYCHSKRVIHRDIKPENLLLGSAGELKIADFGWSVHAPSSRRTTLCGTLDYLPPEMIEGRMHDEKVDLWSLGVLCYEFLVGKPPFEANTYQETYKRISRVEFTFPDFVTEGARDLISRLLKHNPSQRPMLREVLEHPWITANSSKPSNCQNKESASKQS

G2019S LRRK2 = G2019S LRRK2 (Homo sapiens, UniProt Q5S007, G2019S); assay: G2019S LRRK2 inhibition (Invitrogen SelectScreen / TR-FRET biochemical assay); set-up: The protein construct used in the assay is GST tagged 969-2527; GST; purchased Invitrogen; settings: numeric value
G2019S LRRK2, sequence (Q5S007 969-2527 G2019S): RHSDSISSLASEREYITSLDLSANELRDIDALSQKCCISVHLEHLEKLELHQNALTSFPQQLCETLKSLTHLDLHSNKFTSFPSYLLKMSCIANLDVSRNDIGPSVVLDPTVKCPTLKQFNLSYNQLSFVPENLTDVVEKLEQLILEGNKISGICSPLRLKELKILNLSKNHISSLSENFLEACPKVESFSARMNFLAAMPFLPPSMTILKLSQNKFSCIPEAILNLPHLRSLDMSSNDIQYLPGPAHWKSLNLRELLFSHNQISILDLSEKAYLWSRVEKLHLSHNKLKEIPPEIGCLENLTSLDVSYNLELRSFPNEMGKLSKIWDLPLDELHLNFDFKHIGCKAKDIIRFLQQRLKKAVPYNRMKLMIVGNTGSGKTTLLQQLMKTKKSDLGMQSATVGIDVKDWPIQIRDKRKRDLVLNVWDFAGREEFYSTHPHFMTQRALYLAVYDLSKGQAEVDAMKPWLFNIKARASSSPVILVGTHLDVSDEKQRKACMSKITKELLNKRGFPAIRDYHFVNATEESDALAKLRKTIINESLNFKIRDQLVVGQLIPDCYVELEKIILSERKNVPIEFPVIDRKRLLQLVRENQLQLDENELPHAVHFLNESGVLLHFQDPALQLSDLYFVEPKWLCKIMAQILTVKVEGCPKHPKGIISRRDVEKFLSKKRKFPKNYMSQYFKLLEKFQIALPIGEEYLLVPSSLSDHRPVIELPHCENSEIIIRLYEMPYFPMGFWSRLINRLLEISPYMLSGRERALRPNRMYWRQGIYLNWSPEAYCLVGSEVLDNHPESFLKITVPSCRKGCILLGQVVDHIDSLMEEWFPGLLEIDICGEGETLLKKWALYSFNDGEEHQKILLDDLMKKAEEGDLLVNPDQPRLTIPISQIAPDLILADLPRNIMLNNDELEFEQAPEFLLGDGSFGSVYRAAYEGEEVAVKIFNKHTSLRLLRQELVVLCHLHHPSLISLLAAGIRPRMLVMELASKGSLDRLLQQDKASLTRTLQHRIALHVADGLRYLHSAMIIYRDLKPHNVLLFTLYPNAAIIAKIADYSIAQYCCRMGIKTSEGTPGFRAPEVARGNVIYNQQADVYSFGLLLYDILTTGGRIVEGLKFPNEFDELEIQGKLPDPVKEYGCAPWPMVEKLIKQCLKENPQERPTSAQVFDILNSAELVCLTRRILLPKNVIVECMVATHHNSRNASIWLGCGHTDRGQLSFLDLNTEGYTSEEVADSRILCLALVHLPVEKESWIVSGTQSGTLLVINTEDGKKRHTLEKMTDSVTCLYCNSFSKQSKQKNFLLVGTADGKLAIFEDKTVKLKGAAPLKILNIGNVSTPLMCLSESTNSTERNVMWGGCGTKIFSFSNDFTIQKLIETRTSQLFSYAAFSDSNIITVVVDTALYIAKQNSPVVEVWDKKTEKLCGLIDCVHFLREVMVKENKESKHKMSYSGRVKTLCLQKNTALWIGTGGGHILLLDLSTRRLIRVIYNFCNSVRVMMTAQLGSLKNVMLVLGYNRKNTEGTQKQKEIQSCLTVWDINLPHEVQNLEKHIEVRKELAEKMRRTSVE
Procedure: IC50s were determined using Invitrogen's SelectScreen® Profiling Service for wild type and LRRK2 G2019S. The test compounds were screened in 1% DMSO (final) in the well.
a) % inhibition is measured at one concentration
b) a 10-point titration is run to ensure the kinase is inhibited within an expected IC50 range
Biochemical Assay Protocol:
Compound potency against wild-type and G2019S LRRK2 is measured via TR-FRET. The IC50, the amount of inhibitor required to inhibitor 50% of the protein under the given assay conditions, is determined by varying the amount of compound (500-0.001 uM) by serial dilution with 12-data points per compound, in duplicate. The substrate (Fluorescein-GAGRLGRDKYKTLRQIRQ) and ATP is fixed at 0.8 uM and 57 uM (KmATP), respectively. All assays are run in Corning low volume […] round bottomed plates. The assay is run in 50 mM Tris-HCl pH8.5, 10 mM MgCl2, 0.01% Brij-35, 1 mM EGTA, 2 mMDTT. The TR-FRET assay is an end-point assay where the reaction with protein, substrate, inhibitor and ATP is incubated for 1 hour at room temperature. The compound is pre-incubated with the protein and substrate prior to initiating the reaction with ATP. Phospho-transfer is detected using a Terbium labeled anti-pLRRKtide that binds to phosphorylated substrate creating FRET transfer when excited at 340 nm. Emissions signals are taken for terbium and FRET induced fluorescein at 495 nm and 520 nm, respectively, using a Biotek Synergy 2 spectrophotometer. The dose response is determined by plotting the emission ratio of 520/495 against the log of the inhibitor concentration. The maximum inhibition and non-inhibition controls is run on all plates. Staurosporine is used as the positive inhibition control and DMSO is used as the negative point control. A 12-point dose curve of Staurosporine is run as a dosing control. The IC50 is determined to be the inhibitor concentration at which 50% inhibition is achieved. The protein construct used in the assay is GST tagged 969-2527. The protein is commercially available from Invitrogen.
Alternatively, compounds of formulas (II), (I), (I-A), (I-B), (I-C), (I-D), (I-D-1), (I-D-2), (I-E), (I-F), (I-G), (I-H), (I-I), (I-I-1), (I-I-2), (I-J), (I-K), (I-L), (I-M), (I-N), (I-Z-1), (I-Z-2), (I-Z-2-a), (I-Z-2-b), (I-Z-2-c), (I-Z-2-d), (I-Z-3-a), (I-Z-3-b), (I-Z-3-c), or (I-Z-3-d) were tested using Invitrogen's SelectScreen® Profiling Service for LRRK2 G2019S.

CDK5/p35 = CDK5/p35 (Homo sapiens, UniProt Q00535); assay: Kinase selectivity panel: CDK5/p35; format: biochemical
CDK5/p35, sequence (Q00535 whole entry, species assumed): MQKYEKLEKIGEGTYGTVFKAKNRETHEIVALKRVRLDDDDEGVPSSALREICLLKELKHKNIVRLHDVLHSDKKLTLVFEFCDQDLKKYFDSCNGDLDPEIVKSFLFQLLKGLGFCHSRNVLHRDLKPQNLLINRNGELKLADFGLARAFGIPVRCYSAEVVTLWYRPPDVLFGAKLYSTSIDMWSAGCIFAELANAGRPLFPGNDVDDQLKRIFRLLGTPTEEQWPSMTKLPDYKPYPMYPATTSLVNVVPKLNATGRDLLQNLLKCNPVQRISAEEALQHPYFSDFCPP
CDK5/p35, sequence (Q15078 whole entry partner, species assumed): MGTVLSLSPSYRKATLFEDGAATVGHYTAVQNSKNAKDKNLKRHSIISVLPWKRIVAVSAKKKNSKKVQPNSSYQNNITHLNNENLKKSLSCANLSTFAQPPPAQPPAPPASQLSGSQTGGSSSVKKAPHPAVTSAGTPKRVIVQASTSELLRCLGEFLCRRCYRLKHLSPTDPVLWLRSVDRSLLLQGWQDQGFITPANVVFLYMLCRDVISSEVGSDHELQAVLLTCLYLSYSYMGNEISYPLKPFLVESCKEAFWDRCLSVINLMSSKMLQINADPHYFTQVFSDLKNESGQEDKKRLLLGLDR

IRAK4 = biological target: T3, IRAK4 (Homo sapiens, UniProt Q9NWZ3); assay: Kinase selectivity panel: IRAK4; format: biochemical
T3 sequence (Q9NWZ3 1-460): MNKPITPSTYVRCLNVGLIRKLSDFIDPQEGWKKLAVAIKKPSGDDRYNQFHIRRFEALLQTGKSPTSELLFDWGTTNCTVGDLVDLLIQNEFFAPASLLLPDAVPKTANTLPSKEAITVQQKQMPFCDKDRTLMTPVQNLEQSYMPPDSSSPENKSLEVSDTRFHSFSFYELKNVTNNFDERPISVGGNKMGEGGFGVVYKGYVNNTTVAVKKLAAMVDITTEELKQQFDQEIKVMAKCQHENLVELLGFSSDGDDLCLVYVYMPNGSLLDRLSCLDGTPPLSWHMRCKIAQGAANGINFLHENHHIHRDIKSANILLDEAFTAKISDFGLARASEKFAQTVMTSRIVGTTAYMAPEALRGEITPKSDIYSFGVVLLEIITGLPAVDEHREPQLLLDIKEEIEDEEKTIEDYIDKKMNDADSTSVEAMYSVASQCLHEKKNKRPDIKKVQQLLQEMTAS

ABL1 = ABL1 (Homo sapiens, UniProt P00519); assay: Kinase selectivity panel: ABL1; format: biochemical
ABL1, sequence (P00519 whole entry, species assumed): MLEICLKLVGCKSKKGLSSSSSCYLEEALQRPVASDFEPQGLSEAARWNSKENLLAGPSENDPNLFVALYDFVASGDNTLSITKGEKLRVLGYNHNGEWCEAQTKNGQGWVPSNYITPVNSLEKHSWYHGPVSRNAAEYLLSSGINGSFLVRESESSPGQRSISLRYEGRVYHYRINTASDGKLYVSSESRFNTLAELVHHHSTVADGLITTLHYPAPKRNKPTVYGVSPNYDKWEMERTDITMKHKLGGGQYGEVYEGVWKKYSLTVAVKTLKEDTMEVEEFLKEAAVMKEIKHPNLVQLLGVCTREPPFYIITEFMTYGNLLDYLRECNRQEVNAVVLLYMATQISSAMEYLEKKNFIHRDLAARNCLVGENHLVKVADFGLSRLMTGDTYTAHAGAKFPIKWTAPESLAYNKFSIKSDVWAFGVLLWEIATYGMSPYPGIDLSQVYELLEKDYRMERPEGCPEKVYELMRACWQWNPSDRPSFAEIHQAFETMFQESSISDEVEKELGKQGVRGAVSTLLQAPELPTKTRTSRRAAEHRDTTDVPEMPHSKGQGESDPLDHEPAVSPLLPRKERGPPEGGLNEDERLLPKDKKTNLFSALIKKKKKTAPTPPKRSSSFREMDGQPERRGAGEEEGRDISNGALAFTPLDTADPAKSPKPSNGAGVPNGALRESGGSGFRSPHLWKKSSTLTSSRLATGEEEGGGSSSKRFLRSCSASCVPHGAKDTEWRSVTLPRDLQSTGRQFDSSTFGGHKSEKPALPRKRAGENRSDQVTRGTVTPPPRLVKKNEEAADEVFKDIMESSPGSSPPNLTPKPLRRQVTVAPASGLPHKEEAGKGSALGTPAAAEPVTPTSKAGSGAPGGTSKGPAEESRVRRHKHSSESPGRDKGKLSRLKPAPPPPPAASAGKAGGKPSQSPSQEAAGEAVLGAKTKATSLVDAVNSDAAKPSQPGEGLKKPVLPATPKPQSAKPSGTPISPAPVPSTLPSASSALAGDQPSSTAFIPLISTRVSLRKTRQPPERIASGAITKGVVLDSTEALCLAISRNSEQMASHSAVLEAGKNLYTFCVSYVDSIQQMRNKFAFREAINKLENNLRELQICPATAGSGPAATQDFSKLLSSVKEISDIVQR

CAMK2D = CAMK2D (Homo sapiens, UniProt Q13557); assay: Kinase selectivity panel: CAMK2D; format: biochemical
CAMK2D, sequence (Q13557 whole entry, species assumed): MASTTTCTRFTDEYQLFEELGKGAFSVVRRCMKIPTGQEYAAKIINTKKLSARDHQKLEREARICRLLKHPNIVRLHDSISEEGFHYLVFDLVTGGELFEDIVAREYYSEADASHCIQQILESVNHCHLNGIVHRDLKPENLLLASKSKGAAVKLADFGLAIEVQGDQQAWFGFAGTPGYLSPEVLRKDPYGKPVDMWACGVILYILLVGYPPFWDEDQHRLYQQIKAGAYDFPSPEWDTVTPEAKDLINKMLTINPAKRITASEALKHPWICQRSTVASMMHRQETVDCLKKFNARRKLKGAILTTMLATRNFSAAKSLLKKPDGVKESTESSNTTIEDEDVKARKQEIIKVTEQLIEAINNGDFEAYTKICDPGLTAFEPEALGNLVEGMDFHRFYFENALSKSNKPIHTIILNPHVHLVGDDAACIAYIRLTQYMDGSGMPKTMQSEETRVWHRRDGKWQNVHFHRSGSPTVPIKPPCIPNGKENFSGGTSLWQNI

MARK2 = MARK2 (Homo sapiens, UniProt Q7KZI7); assay: Kinase selectivity panel: MARK2; format: biochemical
MARK2, sequence (Q7KZI7 whole entry, species assumed): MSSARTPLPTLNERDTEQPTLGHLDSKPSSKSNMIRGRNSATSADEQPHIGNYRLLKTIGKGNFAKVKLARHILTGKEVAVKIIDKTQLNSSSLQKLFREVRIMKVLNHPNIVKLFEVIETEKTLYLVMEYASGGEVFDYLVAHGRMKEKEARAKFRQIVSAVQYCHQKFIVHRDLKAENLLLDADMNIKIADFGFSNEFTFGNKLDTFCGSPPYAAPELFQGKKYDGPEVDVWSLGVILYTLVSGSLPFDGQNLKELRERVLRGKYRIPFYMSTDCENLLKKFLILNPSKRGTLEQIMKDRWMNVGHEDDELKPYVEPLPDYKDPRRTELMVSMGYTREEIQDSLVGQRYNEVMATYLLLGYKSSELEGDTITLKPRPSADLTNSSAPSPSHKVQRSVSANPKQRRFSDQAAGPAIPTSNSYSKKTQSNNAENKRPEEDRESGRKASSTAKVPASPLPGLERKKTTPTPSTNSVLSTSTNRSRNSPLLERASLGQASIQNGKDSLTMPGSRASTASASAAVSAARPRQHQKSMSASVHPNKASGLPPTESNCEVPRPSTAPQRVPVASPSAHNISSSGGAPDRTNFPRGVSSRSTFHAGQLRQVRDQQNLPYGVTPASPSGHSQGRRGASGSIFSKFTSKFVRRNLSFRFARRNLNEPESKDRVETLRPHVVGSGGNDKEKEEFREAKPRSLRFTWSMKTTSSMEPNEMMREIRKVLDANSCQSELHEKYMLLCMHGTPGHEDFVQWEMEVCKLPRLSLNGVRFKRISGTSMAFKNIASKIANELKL

SMILES	IC50 (CHEK1) [nM]	IC50 (AURKA) [nM]	IC50 (G2019S LRRK2) [nM]	IC50 (CDK5/p35) [nM]	IC50 (IRAK4) [nM]	IC50 (ABL1) [nM]	IC50 (CAMK2D) [nM]	IC50 (MARK2) [nM]
Cc1ncc(/C=C2\C(=O)Nc3ccc(OC(C)C)cc32)[nH]1 [Compound 14, (3Z)-5-isopropoxy-3-[(2-methyl-1H-imidazol-5-yl)methylene]indolin-2-one]	999	50	1.2	258	655	860	615	434
COc1ccc2c(c1)/C(=C/c1cnc(C(C)C)[nH]1)C(=O)N2 [Compound 12, (3Z)-3-[(2-isopropyl-1H-imidazol-5-yl)methylene]-5-methoxy-indolin-2-one]	> 10000	5260	7.6	> 10000	3440	> 10000	275	1840
COc1ccc2c(c1)/C(=C/c1cnc(C(C)(C)C)[nH]1)C(=O)N2 [Compound 19, (3Z)-3-[(2-tert-butyl-1H-imidazol-5-yl)methylene]-5-methoxy-indolin-2-one]	> 10000	> 10000	43.9	> 10000	> 10000	> 10000	1470	> 10000
